In general, IC50 refers to the point on the concentration scale where inhibition reaches its midpoint.

Assay [1] concerns the target T1, MBP-CDC25B3 recombinant enzyme (Homo sapiens, UniProt P30305).
T1 construct: made in house
T1 sequence (P30305 1-580): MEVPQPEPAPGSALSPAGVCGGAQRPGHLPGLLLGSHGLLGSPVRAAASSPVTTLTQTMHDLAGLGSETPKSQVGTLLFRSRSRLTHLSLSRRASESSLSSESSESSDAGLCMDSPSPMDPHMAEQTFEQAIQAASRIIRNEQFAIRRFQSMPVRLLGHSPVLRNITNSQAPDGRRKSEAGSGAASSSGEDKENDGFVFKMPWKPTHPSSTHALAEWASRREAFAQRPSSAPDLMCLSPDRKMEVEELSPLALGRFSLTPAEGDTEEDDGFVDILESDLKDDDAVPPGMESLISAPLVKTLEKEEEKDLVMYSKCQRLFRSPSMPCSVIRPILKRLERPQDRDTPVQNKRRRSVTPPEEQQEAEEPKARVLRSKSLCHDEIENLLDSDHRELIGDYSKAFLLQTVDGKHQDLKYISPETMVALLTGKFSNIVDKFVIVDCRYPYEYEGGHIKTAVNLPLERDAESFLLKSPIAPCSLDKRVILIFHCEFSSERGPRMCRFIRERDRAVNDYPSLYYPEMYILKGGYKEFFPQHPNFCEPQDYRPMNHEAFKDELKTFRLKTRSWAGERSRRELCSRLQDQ
In words: In vitro enzymatic assay (fluorescein diphosphate as substrate). It is filed as biochemical. Conditions: recombinant fused MBP-CDC25B protein, fluorescein diphosphate 30 µM as substrate, concentration response up to 100 µM. The procedure: The activity of the MBP-CDC25B3 recombinant enzyme was monitored using fluorescein diphosphate as the substrate. The assay was performed in 96-well plates in a final volume of 200 µL. The maltose binding protein-CDC25B3 was kept in elution buffer [50mM phosphate pH 7.5, 300 mM NaCl, 500 mM imidazole, 10% glycerol]. It was diluted in assay buffer [30 mM Tris-HCl (pH 8.2), 75 mM NaCl, 0.67 mM EDTA, 0.033% BSA, 1 mM DTT]. The final concentration of CDC25B3 was 75 ng/well. Products were studied in a concentration response up to 100 µM. The reaction was initiated by addition of 30 µM of fluorescein diphosphate followed by immediate measure of fluorescein emission with a Fluoroskan Ascent (Lab Systems; excitation filter: 485 nm, emission filter: 530 nm). The results are expressed as the means of at least two independent experiments with three determinations per tested concentration and per experiment. For each compound, the drug concentration required for 50% inhibition (IC50) was determined from a sigmoidal dose-response curve using GraphPad Prism (GraphPad Software, San Diego, CA).
The compounds of formula (I) were evaluated for in vitro enzymatic activity inhibition on the recombinant fused MBP-CDC25B protein with fluorescein diphosphate as the substrate.

A further assay has as its system HeLa cells. In words: Clonogenic assay (cloning inhibition, colony counting after crystal violet staining). It is filed as cell-based. Conditions: 10 days incubation. The procedure: For cloning inhibition assays, HeLa cells were plated at 100 cells/well in 6-well tissue culture plates with 2.5 mL of medium/well. After 24 h growing at 37 °C in a humidified atmosphere of 5% CO2, the culture medium was replaced by control medium or medium containing inhibitors at increasing concentrations (up to 100 µM) and incubated for 10 days. Cells were then washed with […] phosphate-buffered saline and fixed in 10% formaldehyde for 30 minutes at room temperature. They were carefully rinsed with water, stained with 1 mL crystal violet (2 g in 100 mL ethanol, then 2 mL in 100 mL water) for 10 minutes and finally rinsed with water. The plating efficiency was determined by counting the colonies. The results are expressed as the means of two independent experiments with three determinations per tested concentration. For each compound, the IC50 was determined from a sigmoidal dose-response using GraphPad Prism (GraphPad Software, San Diego, CA).
The effects on cell proliferation were further investigated in a clonogenic assay on HeLa cells. HeLa cells were treated at day 1 with increasing concentration of drugs and then plated for an additional 10-day. After crystal violet staining and colony counting, dose-response curve were drawn and the IC50 values determined.

[2] abbreviates: Homo sapiens, 240 h, read-out: IC50.

Where a name gives a salt, the structure may show the parent alone. Read-outs that look alike come from different tables or passages of the source.

Regarding `CCOC(=O)C1=C(C)N=c2sc(=Cc3ccc(O)cc3)c(=O)n2C1c1ccc2c(c1)OCO2` (centres unmarked) [(1a), ethyl 5-(benzo[1,3]dioxol-5-yl)-2-(4-hydroxybenzylidene)-7-methyl-3-oxo-2,3-dihydro-5H-thiazolo[3,2-a]pyrimidinium-6-carboxylate mesylate], the IC50 stood at 6 µM in assay [1] and 14.8 µM with HeLa cells (mesylate). As for `COC(=O)C1=C(C)N=c2sc(=Cc3ccc(O)cc3)c(=O)n2C1c1ccc2c(c1)OCO2` (centres unmarked) [(12a), methyl 5-(benzo[1,3]dioxol-5-yl)-2-(4-hydroxybenzylidene)-7-methyl-3-oxo-2,3-dihydro-5H-thiazolo[3,2-a]pyrimidine-6-carboxylate], the half-inhibitory concentration (IC50) in assay [1] turned out to be 9.2 µM.

In the case of `CCOC(=O)C1=C(C)N=c2sc(=Cc3ccc(O)cc3)c(=O)n2C1c1ccc2c(c1)OCO2` (stereo not drawn) [Compound 1, ethyl 5-(benzo[1,3]dioxol-5-yl)-2-(4-hydroxybenzylidene)-7-methyl-3-oxo-2,3-dihydro-5H-thiazolo[3,2-α]pyrimidine-6-carboxylate], the IC50 in assay [1] amounted to 13 µM; with HeLa cells (Homo sapiens, HeLa, 240 h), 15.9 µM. Consider `CCOC(=O)C1=C(C)N=c2sc(=Cc3cc(Br)c(O)c(Br)c3)c(=O)n2C1c1ccc2c(c1)OCO2` (centres unmarked) [Compound 12, ethyl 5-(benzo[1,3]dioxol-5-yl)-2-(3,5-dibromo-4-hydroxybenzylidene)-7-methyl-3-oxo-2,3-dihydro-5H-thiazolo[3,2-a]pyrimidine-6-carboxylate], for which the IC50 amounted to 16.7 µM in assay [1] and 9.75 µM in the assay on HeLa cells (setting [2]). Take `CCOC(=O)C1=C(C)N=c2sc(=Cc3ccc(OC(C)=O)c(OC(C)=O)c3)c(=O)n2C1c1ccc2c(c1)OCO2` (centres unmarked) [Compound (5a), ethyl 2-(3,4-diacetoxybenzylidene)-5-(benzo[1,3]dioxol-5-yl)-7-methyl-3-oxo-2,3-dihydro-5H-thiazolo[3,2-a]pyrimidine-6-carboxylate]: the IC50 was 1.2 µM in assay [1] and 1.8 µM in the assay on HeLa cells (setting [2]).

On to `CCOC(=O)C1=C(C)N=c2sc(=Cc3ccc(OC(C)=O)c(OC(C)=O)c3)c(=O)n2C1c1ccc(OC)c(OC)c1` (centres unmarked) [Compound (5b), ethyl 2-(3,4-diacetoxybenzylidene)-5-(3,4-dimethoxyphenyl)-7-methyl-3-oxo-2,3-dihydro-5H-thiazolo[3,2-a]pyrimidine-6-carboxylate], for which the values for the IC50 (in assay [1]; in the assay on HeLa cells (setting [2])) were 2.9 µM and 3.5 µM, respectively.
